# Experimental data published in article PMC11982978, “Cancer hotspot mutations rewire ERK2 specificity by selective exclusion of docking interactions” (The Journal of Biological Chemistry, 2025).
# Peptide text beside a SMILES is read from it. * marks the point of attachment. Biotin = O=C1N[C@H]2[C@H](CS[C@H]2CCCCC(=O)*)N1
# How the values were obtained:
# Type in all cases: biochemical
# ERK2 WT = target: T1, ERK2 WT (Mus musculus, UniProt P63085); assay: Competitive peptide kinase assay (D-peptide inhibition), ERK2 WT; conditions: Table S1, 5 μM reporter peptide, 10 nM ERK2, 10 μM ATP, three independent experiments
# T1 construct: His6; made in house; host or cells: E. coli BL21(DE3), co-expressed with GST-MEK1ΔN3
# Experimental: (§1) We determined relative binding affinities for D-peptides from their potency as competitive inhibitors of WT or mutant ERK2 activity on a D-site-dependent reporter substrate peptide (Table S1, Fig. 3A, S3).
# (§2) Competitive peptide kinase assays were performed with a D-site dependent MAPK reporter substrate peptide (AssayQuant Technologies Inc, #AQT0376) as we reported previously ([15]). Briefly, 5 μM of reporter peptide was mixed with various concentrations of D-peptides in reaction buffer (54 mM HEPES [pH 7.4], 1.2 mM DTT, 0.01% Brij-35, 1% glycerol, 0.2 mg/ml BSA, and 10 mM MgCl2). […] Phosphorylation of the reporter peptide was measured by fluorescence (λex 360 nm, λem 485 nm) in 90 s intervals over 21 min in a Spectra M5 plate reader. Rates were calculated from the linear portion of the reaction progress curve, and data were normalized to maximum (samples lacking competitor peptide) and minimum (control reactions lacking kinase) values. Normalized rates were plotted against D-peptide concentration and fitted into a sigmoidal dose-response curve to determine the IC50 values using GraphPad Prism (Version 9.3.0).
# ERK2 R133K = target: T2, ERK2 R133K (Mus musculus, UniProt P63085, R133K); assay: Competitive peptide kinase assay (D-peptide inhibition), ERK2 R133K; conditions: Table S1, 5 μM reporter peptide, 10 nM ERK2, 10 μM ATP, three independent experiments
# T2 construct: His6; made in house; host or cells: E. coli BL21(DE3), co-expressed with GST-MEK1ΔN3
# Experimental: as §1, §2
# ERK2 D319N = target: T3, ERK2 D319N (Mus musculus, UniProt P63085, D319N); assay: Competitive peptide kinase assay (D-peptide inhibition), ERK2 D319N; conditions: Table S1, 5 μM reporter peptide, 10 nM ERK2, 10 μM ATP, three independent experiments
# T3 construct: His6; made in house; host or cells: E. coli BL21(DE3), co-expressed with GST-MEK1ΔN3
# Experimental: as §1, §2
# ERK2 E322K = target: T4, ERK2 E322K (Mus musculus, UniProt P63085, E320K); assay: Competitive peptide kinase assay (D-peptide inhibition), ERK2 E322K; conditions: Table S1, 5 μM reporter peptide, 10 nM ERK2, 10 μM ATP, three independent experiments
# T4 construct: His6; made in house; host or cells: E. coli BL21(DE3), co-expressed with GST-MEK1ΔN3
# Experimental: as §1, §2
# His6-ERK2 WT = assay: Radiolabel kinase assay with competing D-peptide; conditions: 10 μM KMT2C D-peptide, WT without peptide = 100.0; for ELK1 WT phosphorylation, Normalized: 0.5 μM GST-ELK1 WT; for ELK1 WT phosphorylation, Normalized / ELK1 ΔD phosphorylation, Normalized: 10 nM ERK2 WT; for ELK1 ΔD phosphorylation, Normalized: 0.5 μM GST-ELK1 ΔD; for GEF-H1 phosphorylation, Normalized: 0.5 μM His6-GEF-H1, 10 nM ERK2 WT
# Text: Based on our structural and mutational analysis, we hypothesized that ERK2 CD site mutants should not bind or efficiently phosphorylate validated ERK2 substrates containing an I/L-x-x-R-R D-site motif. We previously reported that while ISG20 interacts physically with ERK2 in cells, it is not an ERK2 substrate in vitro ([15]). […] We previously reported that disruption of the GEF-H1 docking motif reduced its extent of co-immunoprecipitation with ERK2 ([15]). Accordingly, we investigated whether cancer-associated ERK2 mutants were impaired in phosphorylating GEF-H1. […] The level of phosphorylation by CD site mutants was similar to that of WT ERK2 when assayed in the presence of excess competing D-peptide to block docking interactions.
# Radiolabel kinase assays were performed as described previously by incubating 0.5 μM MAPK substrate (His6-GEF-H1, GST-ELK1^WT or GST-ELK1^ΔD), 10 nM His6-ERK2 (WT, R133K, D319N or E320K) and 10 μM inhibitor peptide KMT2C where indicated (biotin-RKRSKPKLKLKIIN-amide, Tufts University Core Facility) in reaction buffer (20 mM HEPES, 10 mM MgCl2, 1 mM DTT, 1% DMSO, 10 μM cold ATP, and 0.038 μCi/μl [γ-^32P] ATP) at 30 °C for 2 min. Reactions were quenched by the addition of 4x SDS-PAGE loading buffer and heated to 95 °C for 5 min before SDS-PAGE fractionation. Gels were stained with Coomassie blue, destained, dried, and exposed to a phosphor screen. Radiolabel incorporation was measured with Molecular Imager FX phosphorimager (Bio-Rad), and ^32P signal density (CNT/mm^2) was quantified using QuantityOne Software (Bio-Rad version 11.0.5). All signals were normalized to the vehicle control condition. Raw quantified data are provided in Dataset S3.
# T1 sequence (P63085 whole entry): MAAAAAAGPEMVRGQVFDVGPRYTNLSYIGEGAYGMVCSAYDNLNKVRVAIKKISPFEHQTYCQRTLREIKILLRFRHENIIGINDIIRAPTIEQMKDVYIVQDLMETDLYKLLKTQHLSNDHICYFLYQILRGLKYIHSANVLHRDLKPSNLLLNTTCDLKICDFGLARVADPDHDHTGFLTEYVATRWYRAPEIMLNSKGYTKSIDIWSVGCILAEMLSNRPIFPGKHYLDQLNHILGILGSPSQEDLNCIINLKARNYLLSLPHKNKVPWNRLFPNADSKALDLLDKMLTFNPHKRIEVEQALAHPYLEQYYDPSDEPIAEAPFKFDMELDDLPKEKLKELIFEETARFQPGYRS
# T2 sequence (P63085 whole entry R133K): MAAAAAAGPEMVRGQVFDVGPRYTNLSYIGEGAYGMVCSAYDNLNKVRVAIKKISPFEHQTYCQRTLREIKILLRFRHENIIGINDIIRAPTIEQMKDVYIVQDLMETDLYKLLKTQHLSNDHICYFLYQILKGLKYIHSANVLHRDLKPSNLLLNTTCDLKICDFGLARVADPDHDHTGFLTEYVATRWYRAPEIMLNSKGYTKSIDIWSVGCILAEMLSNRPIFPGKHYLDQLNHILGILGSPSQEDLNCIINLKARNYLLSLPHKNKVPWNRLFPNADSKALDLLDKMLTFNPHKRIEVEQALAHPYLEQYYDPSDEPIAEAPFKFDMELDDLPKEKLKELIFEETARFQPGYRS
# T3 sequence (P63085 whole entry D319N): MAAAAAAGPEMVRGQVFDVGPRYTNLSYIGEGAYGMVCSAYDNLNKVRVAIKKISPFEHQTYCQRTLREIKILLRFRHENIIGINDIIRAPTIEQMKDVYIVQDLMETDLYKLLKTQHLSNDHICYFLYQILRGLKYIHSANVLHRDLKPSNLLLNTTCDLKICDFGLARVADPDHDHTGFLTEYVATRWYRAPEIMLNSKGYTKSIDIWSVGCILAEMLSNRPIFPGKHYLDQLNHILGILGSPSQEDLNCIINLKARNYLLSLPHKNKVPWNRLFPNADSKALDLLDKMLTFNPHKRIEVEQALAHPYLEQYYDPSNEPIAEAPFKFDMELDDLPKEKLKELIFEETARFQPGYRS
# T4 sequence (P63085 whole entry E320K): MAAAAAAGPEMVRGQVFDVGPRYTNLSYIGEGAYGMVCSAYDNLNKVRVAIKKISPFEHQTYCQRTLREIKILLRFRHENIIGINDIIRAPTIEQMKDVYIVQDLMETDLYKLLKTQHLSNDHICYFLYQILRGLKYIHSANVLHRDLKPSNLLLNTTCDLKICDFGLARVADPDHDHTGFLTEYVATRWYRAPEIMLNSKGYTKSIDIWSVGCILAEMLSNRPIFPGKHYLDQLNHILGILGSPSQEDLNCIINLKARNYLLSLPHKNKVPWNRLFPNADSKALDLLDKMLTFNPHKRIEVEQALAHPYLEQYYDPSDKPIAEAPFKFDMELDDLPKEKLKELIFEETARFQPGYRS
Molecule,IC50 (ERK2 WT),IC50 (ERK2 R133K),IC50 (ERK2 D319N),IC50 (ERK2 E322K),"ELK1 WT phosphorylation, Normalized (His6-ERK2 WT; Replicate 1)","ELK1 WT phosphorylation, Normalized (His6-ERK2 WT; Replicate 2)","ELK1 WT phosphorylation, Normalized (His6-ERK2 WT; Replicate 3)","ELK1 ΔD phosphorylation, Normalized (His6-ERK2 WT; Replicate 1)","ELK1 ΔD phosphorylation, Normalized (His6-ERK2 WT; Replicate 2)","ELK1 ΔD phosphorylation, Normalized (His6-ERK2 WT; Replicate 3)","GEF-H1 phosphorylation, Normalized (His6-ERK2 WT; 30 °C 2 min, Replicate 1)","GEF-H1 phosphorylation, Normalized (His6-ERK2 WT; Replicate 2)","GEF-H1 phosphorylation, Normalized (His6-ERK2 WT; Replicate 3)"
CC(C)C[C@H](NC(=O)CNC(=O)[C@H](CCCNC(=N)N)NC(=O)[C@H](CCCNC(=N)N)NC(=O)[C@H](C)NC(=O)[C@H](CS)NC(=O)[C@H](CC(C)C)NC(=O)[C@H](C)NC(=O)[C@@H](N)Cc1ccc(O)cc1)C(=O)N[C@@H](Cc1ccc(O)cc1)C(=O)N[C@@H](CS)C(=O)N[C@@H](CC(C)C)C(=O)N[C@@H](CO)C(=O)N[C@@H](CC(C)C)C(=O)N[C@@H](CC(=O)O)C(=O)N[C@@H](Cc1c[nH]cn1)C(=O)O [FAAP100],92 µM,> 200 µM,> 200 µM,> 200 µM,–,–,–,–,–,–,–,–,–
CC(C)C[C@H](NC(=O)[C@@H](NC(=O)[C@H](CC(C)C)NC(=O)[C@H](CO)NC(=O)[C@@H](NC(=O)[C@H](CC(N)=O)NC(=O)[C@H](CO)NC(=O)CNC(=O)[C@H](CCCNC(=N)N)NC(=O)[C@H](CCCNC(=N)N)NC(=O)[C@H](CCC(=O)O)NC(=O)[C@H](CCC(N)=O)NC(=O)[C@H](CC(C)C)NC(=O)CNC(=O)[C@H](C)NC(=O)[C@@H](N)Cc1ccc(O)cc1)C(C)C)[C@@H](C)O)C(=O)O [PTPN5] (H-YAGLQERRGSNVSLTL-OH),42 µM,760 µM,600 µM,600 µM,–,–,–,–,–,–,–,–,–
Biotin-RKRSKPKLKLKIIN-NH2 [D-pep],–,–,–,–,66.2,52.7,42.6,107.4,80.5,85.4,23.5,37.1,54.2

# The next lines start with the values.
IC50 (ERK2 WT),IC50 (ERK2 R133K),IC50 (ERK2 D319N),IC50 (ERK2 E322K),"ELK1 WT phosphorylation, Normalized (His6-ERK2 WT; Replicate 1)","ELK1 WT phosphorylation, Normalized (His6-ERK2 WT; Replicate 2)","ELK1 WT phosphorylation, Normalized (His6-ERK2 WT; Replicate 3)","ELK1 ΔD phosphorylation, Normalized (His6-ERK2 WT; Replicate 1)","ELK1 ΔD phosphorylation, Normalized (His6-ERK2 WT; Replicate 2)","ELK1 ΔD phosphorylation, Normalized (His6-ERK2 WT; Replicate 3)","GEF-H1 phosphorylation, Normalized (His6-ERK2 WT; 30 °C 2 min, Replicate 1)","GEF-H1 phosphorylation, Normalized (His6-ERK2 WT; Replicate 2)","GEF-H1 phosphorylation, Normalized (His6-ERK2 WT; Replicate 3)",Molecule
24 µM,27 µM,30 µM,40 µM,–,–,–,–,–,–,–,–,–,CC[C@H](C)[C@H](NC(=O)[C@H](CC(C)C)NC(=O)[C@@H]1CCCN1C(=O)[C@H](CCC(=O)O)NC(=O)[C@@H]1CCCN1C(=O)[C@H](CCCNC(=N)N)NC(=O)[C@@H]1CCCN1C(=O)[C@H](CCCNC(=N)N)NC(=O)[C@H](CCC(N)=O)NC(=O)[C@H](CCCCN)NC(=O)[C@@H]1CCCN1C(=O)[C@H](C)NC(=O)[C@@H](N)Cc1ccc(O)cc1)C(=O)N[C@H](C(=O)N1CCC[C@H]1C(=O)N[C@H](C(=O)O)[C@@H](C)O)[C@@H](C)CC [ELMSAN1] (H-YAPKQRPRPEPLIIPT-OH)
23 µM,29 µM,23 µM,41 µM,–,–,–,–,–,–,–,–,–,CC[C@H](C)[C@H](NC(=O)[C@@H](NC(=O)[C@H](CC(C)C)NC(=O)[C@H](C)NC(=O)[C@@H]1CCCN1C(=O)[C@H](CC(C)C)NC(=O)[C@@H](NC(=O)[C@@H]1CCCN1C(=O)[C@H](CCCCN)NC(=O)[C@H](CCCNC(=N)N)NC(=O)[C@H](CCCNC(=N)N)NC(=O)[C@H](C)NC(=O)[C@H](C)NC(=O)[C@@H](N)Cc1ccc(O)cc1)C(C)C)[C@@H](C)O)C(=O)N[C@@H](CC(N)=O)C(=O)N1CCC[C@H]1C(=O)O [MAP2K2] (H-YAARRKPVLPALTINP-OH)
18 µM,23 µM,26 µM,28 µM,–,–,–,–,–,–,–,–,–,CC(C)C[C@H](NC(=O)CNC(=O)[C@H](CCCCN)NC(=O)[C@H](Cc1ccccc1)NC(=O)[C@H](CC(N)=O)NC(=O)[C@H](CCCCN)NC(=O)[C@H](Cc1c[nH]c2ccccc12)NC(=O)[C@H](CCCCN)NC(=O)[C@@H]1CCCN1C(=O)[C@H](CO)NC(=O)[C@H](C)NC(=O)[C@@H](N)Cc1ccc(O)cc1)C(=O)N[C@@H](CCCCN)C(=O)N[C@@H](CC(C)C)C(=O)N[C@@H](CC(C)C)C(=O)N[C@@H](CS)C(=O)O [MLXIPL] (H-YASPKWKNFKGLKLLC-OH)
6.8 µM,6.2 µM,23 µM,56 µM,–,–,–,–,–,–,–,–,–,CC[C@H](C)[C@H](NC(=O)[C@H](C)NC(=O)[C@@H](N)Cc1ccc(O)cc1)C(=O)N[C@@H](CCCCN)C(=O)NCC(=O)N[C@@H](CCCCN)C(=O)N[C@@H](CCCNC(=N)N)C(=O)N[C@@H](CCCNC(=N)N)C(=O)N[C@@H](CCCNC(=N)N)C(=O)N[C@@H](CCCCN)C(=O)N[C@@H](CCCCN)C(=O)N[C@@H](CC(C)C)C(=O)N[C@H](C(=O)N[C@@H](CC(C)C)C(=O)N[C@@H](C)C(=O)N[C@@H](CCCCN)C(=O)O)[C@@H](C)CC [ZBED6] (H-YAIKGKRRRKKLILAK-OH)
